These results are taken from the METLIN SMRT retention time set (Domingo-Almenara et al. 2019).

Structures are written as SMILES.

This data set can be described thus: gradient 5% acetonitrile 3 min, to 50% in 2 min, to 85% in 15 min, held 3 min, 100 µL/min. As to conditions: column: Zorbax Extend-C18 2.1 x 50 mm; eluents: water / acetonitrile, 0.1% formic acid. Summed up:
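The system's dead and dwell volumes were 40 μL and 900 μL, with a Zorbax Extend-C18 column (2.1 × 50 mm, 1.8 μm) run at 100 μL/min in water and acetonitrile containing 0.1% formic acid each. Pure standards were analyzed in mixtures of ~100 molecules by HPLC–quadrupole time-of-flight mass spectrometry in positive and negative ionization mode. Retention time was assigned from computationally picked, manually inspected adduct peaks.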
`Cc1ccccc1C(=O)Nc1ccc(C(=O)N2CCCC(N(C)C)c3ccccc32)cc1` (stereo not given): the RP-LC retention time came to 712 s. The compound `CCOC(=O)c1cc(C)nc2c1c(=O)n(Cc1ccccc1)c(=O)n2C` yielded an RP-LC retention time of 879 s. With `CCCOc1nn(CCC)cc1C(=O)N1CCC(C(=O)OC)CC1`, the RP-LC retention time came to 736 s. For the compound `Cc1ccccc1CNC(=O)C1CCN(S(=O)(=O)c2ccc3c(c2)NC(=O)CO3)CC1`, the RP-LC retention time is 777 s. In the case of `COc1ccc(NC(=O)Cn2cnc(-c3ccc(F)cc3)cc2=O)c(OC)c1`, the RP-LC retention time was found to be 754 s. Regarding `COc1cc(C(=O)NCCc2csc(-c3ccc(Cl)cc3)n2)c([N+](=O)[O-])cc1OC`, the RP-LC retention time is 895 s. As to `COc1ccc(OC)c(NC(=O)C2CC(=O)N(CCc3c[nH]c4ccc(F)cc34)C2)c1` (stereo not given), the RP-LC retention time came out at 794 s. `Cc1cccc2nnc(N3CCN(C(=O)c4cc5c(s4)CCCC5)CC3)n12` yielded an RP-LC retention time of 605 s. `O=C(Nc1cc(-c2cccs2)no1)c1cc(F)cc(F)c1` came in with an RP-LC retention time of 1010 s. Compound `O=C(NCCN1CCOCC1)C1CCN(Cc2cc3ccccc3n2Cc2ccccc2Cl)CC1` had an RP-LC retention time of 621 s.

The compound `Cc1ccc2nc(-c3ccc(NC(=O)c4cnc5sccn5c4=O)cc3)sc2c1` yielded an RP-LC retention time of 1110 s. Regarding `Cc1ccc(-c2cc3c(N4CCCC(C(=O)NCC5CC5)C4)nccn3n2)c(C)c1` (stereo not given), the RP-LC retention time was 863 s. Compound `Cn1c(=O)oc2cc(-c3noc(-c4ccc(C(C)(C)C)cc4)n3)ccc21` came in with an RP-LC retention time of 1310 s. Take `O=C(NCc1ccc(F)cc1)C1CCCN(C(=O)C2Sc3ccccc3NC2=O)C1` (stereo not given): the RP-LC retention time turned out to be 759 s. The compound `COCCN1C(=O)[C@H]2CN(Cc3cc(OC)c(OC)c(OC)c3)C[C@H]2C1=O` showed an RP-LC retention time of 578 s. To `COC(=O)CNC(=O)c1cc2c(=O)n(C)c3ccccc3n2n1` belongs 676 s; to `Cn1c(=O)n(CC(=O)Nc2cccc(Cl)c2)c(=O)c2cnc(-c3ccccc3)nc21`, 1050 s; to `Cc1ccc(C)c(-c2cc(C(N)=O)[nH]n2)c1`, 695 s. For the compound `CN1C(=O)CCc2cc(NS(=O)(=O)c3ccc(Br)cc3)ccc21`, the RP-LC retention time amounted to 810 s.

For `CCCn1cc(CCNS(=O)(=O)c2cccc(C)c2)c2cccnc21`, the RP-LC retention time turned out to be 866 s. In turn, `Cc1cnc(C2CCOCC2)n1C1CCCN(Cc2c[nH]c3ccccc23)C1` (stereo not given) showed an RP-LC retention time of 557 s. Compound `CCOc1cc(-c2ccccc2)nc2ccc(NS(=O)(=O)c3ccc(OC)c(OC)c3)cc12` registered an RP-LC retention time of 730 s. The compound `CCNC(=O)c1cc(C(C)(C)C)[nH]n1` displayed an RP-LC retention time of 647 s. `O=C(c1cn(-c2ccc(S(=O)(=O)N3CCCCC3)cc2)cn1)N1CCN(c2ccccn2)CC1` yielded an RP-LC retention time of 633 s. Take `Cc1nn(-c2nc(-c3ccccc3)cs2)c(C)c1CC(=O)Nc1ccc(F)cc1`: the RP-LC retention time amounted to 1130 s.

`Cn1ncc2c3ccccc3n(CCCC(=O)NCCc3ccccc3)c2c1=O` yielded an RP-LC retention time of 845 s.

Regarding `Cc1ccc(NC(=O)C(C)Oc2ccc(F)cc2)cc1C` (stereo not given), the RP-LC retention time amounted to 956 s. Regarding `O=C(Cc1cccs1)N1CCCC(c2nncn2-c2ccccc2)C1` (stereo not given), the RP-LC retention time was 663 s. Then `CN(CCCNC(=O)C1CCN(c2nc3ccccc3n(C)c2=O)CC1)C1CCCCC1`, with 650 s; and `O=C(O)c1cccnc1NCc1cccc(F)c1`, with 655 s. In turn, `Cn1c(N2CCCC(C(=O)NCCC3=CCCCC3)C2)cc(=O)n(C)c1=O` (stereo not given) had an RP-LC retention time of 754 s.

Compound `Cc1nn(CC(=O)N2CCOCC2)c(=O)c2c(-n3cccc3)n(-c3ccc(F)cc3)nc12` yielded an RP-LC retention time of 809 s. `Cc1ccc(-c2cc3c(=O)n(Cc4nc(-c5ccc6c(c5)OCO6)no4)ncn3n2)c(C)c1` gave an RP-LC retention time of 1170 s. Consider `O=C(CSc1nccn1Cc1ccco1)Nc1ccccc1C(F)(F)F`, for which the RP-LC retention time came out at 637 s. To `COc1cccc(CNC(=O)C2CCCN(c3nc4ccccc4nc3OC)C2)c1` (stereo not given) belongs 1010 s.

Turning to `CCc1noc([C@@H]2CC(F)(F)CN2C(=O)c2occc2C)n1`, the RP-LC retention time amounted to 840 s. Compound `COCCC1(N(C)C)CCN(S(=O)(=O)c2ccc(C#N)cc2)CC1` came in with an RP-LC retention time of 613 s. Then `Cc1cc(C)n(CCNC(=O)c2ccc3nsnc3c2)n1`, with 638 s; and `CCOc1nc2ccccc2nc1N1CCCC(C(=O)Nc2ccc(Br)cc2)C1` (stereo not given), with 1340 s. The compound `NC(=O)OCCCc1ccccc1` yielded an RP-LC retention time of 817 s. `Cc1ccc(C)c(-c2coc(-c3ccc(NC(=O)CC(C)C)cc3)n2)c1` came in with an RP-LC retention time of 1260 s.

The compound `CCSc1nnc(NC(=O)CSc2nnnn2-c2ccccc2CC)s1` had an RP-LC retention time of 887 s. Regarding `COc1ccc(CC(=O)N2C[C@@H]3C[C@H]2C[C@@H]3NS(=O)(=O)c2ccccc2)cc1`, the RP-LC retention time stood at 768 s. For `Cc1cnc(C(=O)N2CCC(N3C(=O)C4(CCCC4)C3c3scnc3C)CC2)cn1` (stereo not given), the RP-LC retention time was determined as 681 s.

`COCCNC(=O)c1ncoc1-c1ccccc1C(=O)N1CCCC1` gave an RP-LC retention time of 635 s. Take `Cn1cc(-c2cc3n(n2)CCCN3C(=O)CCC(=O)NCCCN2CCOCC2)c2ccccc21`: the RP-LC retention time is 611 s. As for `COc1cc2c(cc1CNC(=O)c1ccc3c(c1)CC(C)O3)OCCCO2` (stereo not given), the RP-LC retention time was found to be 855 s. The compound `CC(C)CCNC(=O)C1CCN(S(C)(=O)=O)c2cc(Cl)ccc2O1` (stereo not given) displayed an RP-LC retention time of 923 s. On to `Nc1cc(C2CCN(S(=O)(=O)c3ccc(Cl)cc3)CC2)no1`, for which the RP-LC retention time amounted to 826 s. In the case of `Cc1nc2cc(-c3noc(COc4ccccc4C)n3)ccc2o1`, the RP-LC retention time is 1100 s. To `CC1CCCCN1S(=O)(=O)c1ccc2c(c1)CCC(=O)N2CC(=O)NC1CCCCC1` (stereo not given) belongs 921 s. `Cc1ccc(CN2C(=O)COc3ccc(C(=O)NCc4ccc5c(c4)OCO5)cc32)cc1` yielded an RP-LC retention time of 921 s. Take `COc1ccccc1C(=O)N1CCCC1c1cc(C)on1` (stereo not given): the RP-LC retention time was determined as 723 s. On to `CCOc1ccc(NC(=O)Nc2nccn(-c3ccccc3)c2=O)cc1`, for which the RP-LC retention time came out at 913 s. Compound `COC(=O)c1cc(OC)c(OC)cc1NC(=O)CCc1ccc(C)o1` yielded an RP-LC retention time of 919 s.

As to `Cc1nnc(NC(=O)CCc2csc(NC(=O)NC3CCCCC3)n2)s1`, the RP-LC retention time stood at 682 s.

`CCn1cc(CN2CCC(N3C(=O)C4(CCCC4)C3c3ccccc3)CC2)cn1` (stereo not given) gave an RP-LC retention time of 673 s. With `CCOc1ccc2nc(NS(=O)(=O)c3ccc4c5c(cccc35)C(=O)N4)sc2c1`, the RP-LC retention time turned out to be 703 s. To `CCN(C(=O)c1cc2c(=O)n(C)c(=O)n(C)c2s1)c1ccc(OC)cc1` belongs 801 s; to `CCCC(CCC)C(=O)N1CCCN(C2=NS(=O)(=O)C(c3ccc(C)cc3)=C2C)CC1`, 1010 s. To `O=C(Cn1ccn2nc(-c3ccccc3)c(CO)c2c1=O)Nc1ccccc1` belongs 781 s; to `Clc1ccc(Nc2c(-c3ccc(N4CCOCC4)cc3)nc3cnccn23)cc1`, 842 s; to `COc1ccc(-c2nc(-c3cccc(-c4ccn[nH]4)c3)no2)c(OC)c1`, 936 s. In turn, `FC(F)(F)c1ccc(C2CNCCO2)cc1` (stereo not given) registered an RP-LC retention time of 570 s. Then `CCS(=O)(=O)Nc1ccc(S(=O)(=O)Nc2nc(C)cc(C)n2)cc1`, with 598 s. To `CC1CCN(CCCNC(=O)C(=O)Nc2ccc3nc4n(c(=O)c3c2)CCCCC4)CC1` belongs 615 s; to `COc1cccc(-n2c(N3CCCC(C(=O)NCCC4=CCCCC4)C3)nc3ccsc3c2=O)c1` (stereo not given), 1020 s.

Compound `CCCN1CCn2cc(S(=O)(=O)Nc3ccc(C)cc3)cc2C1=O` gave an RP-LC retention time of 771 s.

Compound `COc1ccc(-c2nn(CCCC(=O)N3CCN(c4ccccc4)CC3)c(=O)c3noc(C)c23)cc1` came in with an RP-LC retention time of 922 s. `CCN1CCN(C(=O)Cn2nc(C)c3sc(-c4ccccc4)nc3c2=O)CC1`: the RP-LC retention time came to 604 s. With `Cc1noc(C)c1CN1CCC(NC(=O)c2cc3ccccc3[nH]2)CC1`, the RP-LC retention time was 621 s. The compound `Cc1cc2nn(CC(=O)Nc3ccc(Cl)cc3)c(=O)n2c(N2CCCC2)n1` showed an RP-LC retention time of 802 s. Compound `CCn1nc(CNC(=O)c2ccc(F)c(F)c2)c2ccccc21` had an RP-LC retention time of 896 s. `CN1C(=O)c2cccnc2Sc2cc(NC(=O)c3cc(Cl)ccc3F)ccc21` had an RP-LC retention time of 859 s. In the case of `COc1ccc(N2C(=O)CC(c3ccc(OC)c(OC)c3)CC2=O)cc1Cl`, the RP-LC retention time came to 845 s. Regarding `Cc1nc(-c2ccc3c(c2)CCN3C(=O)c2nccc3ccccc23)cs1`, the RP-LC retention time stood at 1040 s. `Cc1cc2c(N3CCCC(C(=O)N4CCN(c5ccc(F)cc5)CC4)C3)nccc2s1` (stereo not given) yielded an RP-LC retention time of 726 s. With `CCn1c(=O)n(CC)c2cc(S(=O)(=O)c3ccc(C)cc3)c(NC(=O)C3CC3)cc21`, the RP-LC retention time worked out at 873 s.

As to `CCOC(=O)C1CCCN(C(=O)C2CCN(S(=O)(=O)c3ccc4c(c3)sc(=O)n4C)CC2)C1` (stereo not given), the RP-LC retention time is 825 s. With `CC1(C(=O)NC2CCCCCCC2)CN(S(C)(=O)=O)CC(=O)N1c1ccc(F)cc1F` (stereo not given), the RP-LC retention time amounted to 952 s.
